target: T1, CCR1 (Homo sapiens, UniProt P32246); assay: Calcium flux in response to MIP-1 alpha in CCR1-transfected cells, Method A (Fluo-4 NW, FLIPR TETRA); assay type: cell-based; conditions: cells stably expressing recombinant CCR1 and G-alpha-16; MIP-1 alpha at EC80; 1 hour incubation at room temperature
T1 sequence (P32246 1-355): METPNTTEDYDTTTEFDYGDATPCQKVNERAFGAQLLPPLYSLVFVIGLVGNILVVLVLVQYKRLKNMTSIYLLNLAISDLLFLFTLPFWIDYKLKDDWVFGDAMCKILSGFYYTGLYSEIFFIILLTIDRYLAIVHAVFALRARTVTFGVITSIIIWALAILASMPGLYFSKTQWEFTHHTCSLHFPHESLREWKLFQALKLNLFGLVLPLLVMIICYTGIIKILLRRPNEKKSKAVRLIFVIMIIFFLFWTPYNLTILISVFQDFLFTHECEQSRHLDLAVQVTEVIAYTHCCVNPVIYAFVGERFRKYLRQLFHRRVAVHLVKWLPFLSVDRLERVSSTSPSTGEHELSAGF
Experimental: (§1) Compounds are assessed for the ability to block the interaction of CCR1 and its ligand in a functional cellular assay measuring calcium flux in response to MIP-1α in CCR1-transfected cells.
On the day of the assay, the cells are transferred to a beaker and dye-loaded in bulk using a Fluo-4 NW Calcium Assay Kit with probenecid (Invitrogen F36205) at 0.8E6 cells/mL for 1 hour at room temperature. After 1 hour, they are seeded in a 384-well tissue culture-treated plate at a density of 20,000 cells/well. Appropriately diluted test compound is added to the well to achieve a top concentration of 3,000 nM (diluted 3-fold with 10 doses total). The final concentration of DMSO is 1%. […] The cells are allowed to incubate 1 hour in the dark at room temperature. The plates are transferred to the FLIPR TETRA where MIP-1 alpha in 1% BSA is added at the EC80 final concentration. Wells +/−MIP-1 alpha containing diluted DMSO instead of compound serve as the controls.

SMILES	IC50 [µM]
COCCNS(=O)(=O)c1ccc(CNC(=O)c2cccc3c2cnn3-c2ccc(F)cc2)cc1 [1-(4-Fluoro-phenyl)-1H-indazole-4-carboxylic acid 4-(2-methoxy-ethylsulfamoyl)-benzylamide]	0.01
CNS(=O)(=O)c1ccc(CNC(=O)c2cccc3c2cnn3-c2ccc(F)cc2)c(F)c1 [1-(4-Fluoro-phenyl)-1H-indazole-4-carboxylic acid 2-fluoro-4-methylsulfamoyl-benzylamide]	0.0054
N#Cc1cc(CNC(=O)c2cccc3c2cnn3-c2ccc(F)cc2)ccn1 [1-(4-Fluoro-phenyl)-1H-indazole-4-carboxylic acid (2-cyano-pyridin-4-ylmethyl)-amide]	0.12
CC(NC(=O)c1cccc2c1cnn2-c1ccc(F)cc1)c1cccc(C(F)(F)F)c1 (stereo not drawn) [1-(4-Fluoro-phenyl)-1H-indazole-4-carboxylic acid [1-(3-trifluoromethyl-phenyl)-ethyl]-amide]	0.014
O=C(NCc1ccc(S(=O)(=O)NCCO)cc1)c1cccc2c1cnn2-c1ccc(F)cc1 [1-(4-Fluoro-phenyl)-1H-indazole-4-carboxylic acid 4-(2-hydroxy-ethylsulfamoyl)-benzylamide]	0.0092
O=C(NCc1ccc(S(=O)(=O)NC2CCOCC2)cc1)c1cccc2c1cnn2-c1ccc(F)cc1 [1-(4-Fluoro-phenyl)-1H-indazole-4-carboxylic acid 4-(tetrahydro-pyran-4-ylsulfamoyl)-benzylamide]	0.02
CN(C)C1CCN(S(=O)(=O)c2ccc(CNC(=O)c3cccc4c3cnn4-c3ccc(F)cc3)cc2)CC1 [1-(4-Fluoro-phenyl)-1H-indazole-4-carboxylic acid 4-(4-dimethylamino-piperidine-1-sulfonyl)-benzylamide]	0.023
CNS(=O)(=O)c1ccc(CNC(=O)c2cccc3c2cnn3-c2ccc(F)cc2)c(Cl)c1 [1-(4-Fluoro-phenyl)-1H-indazole-4-carboxylic acid 2-chloro-4-methylsulfamoyl-benzylamide]	0.004
COc1cc(CNC(=O)c2cccc3c2cnn3-c2ccc(F)cc2)cc(OC)c1 [1-(4-Fluoro-phenyl)-1H-indazole-4-carboxylic acid 3,5-dimethoxy-benzylamide]	0.025
CS(=O)(=O)c1ccc(CNC(=O)c2cccc3c2cnn3-c2ccc(F)cc2)c(Cl)c1 [1-(4-Fluoro-phenyl)-1H-indazole-4-carboxylic acid 2-chloro-4-methanesulfonyl-benzylamide]	0.0067
CC(C)NS(=O)(=O)Cc1ccc(CNC(=O)c2cccc3c2cnn3-c2ccc(F)cc2)cc1 [1-(4-Fluoro-phenyl)-1H-indazole-4-carboxylic acid 4-(isopropylsulfamoyl-methyl)-benzylamide]	0.055
CCC[C@H](NC(=O)c1cccc2c1cnn2-c1ccc(F)cc1)c1cccc(Br)c1 [1-(4-Fluoro-phenyl)-1H-indazole-4-carboxylic acid [(S)-1-(3-bromo-phenyl)-butyl]-amide]	0.019
O=C(NCc1cccc(Br)c1)c1cccc2c1cnn2-c1ccc(F)cc1 [1-(4-Fluoro-phenyl)-1H-indazole-4-carboxylic acid 3-bromo-benzylamide]	0.076
COc1cc(CNC(=O)c2cccc3c2cnn3-c2ccc(F)cc2)ccn1 [1-(4-Fluoro-phenyl)-1H-indazole-4-carboxylic acid (2-methoxy-pyridin-4-ylmethyl)-amide]	0.022
O=C(NCc1ccc(S(=O)(=O)N2CCOCC2)cc1)c1cccc2c1cnn2-c1ccc(F)cc1 [1-(4-Fluoro-phenyl)-1H-indazole-4-carboxylic acid 4-(morpholine-4-sulfonyl)-benzylamide]	0.014
CC(=O)NCCNS(=O)(=O)c1ccc(CNC(=O)c2cccc3c2cnn3-c2ccc(F)cc2)cc1 [1-(4-Fluoro-phenyl)-1H-indazole-4-carboxylic acid 4-(2-acetylamino-ethylsulfamoyl)-benzylamide]	0.11
CNS(=O)(=O)c1ccc(CNC(=O)c2cc(S(C)(=O)=O)cc3c2cnn3-c2ccc(F)cc2)cc1 [1-(4-Fluoro-phenyl)-6-methanesulfonyl-1H-indazole-4-carboxylic acid 4-methylsulfamoyl-benzylamide]	0.028
CN1CCC(N(C)S(=O)(=O)c2ccc(CNC(=O)c3cccc4c3cnn4-c3ccc(F)cc3)cc2)CC1 [1-(4-Fluoro-phenyl)-1H-indazole-4-carboxylic acid 4-[methyl-(1-methyl-piperidin-4-yl)-sulfamoyl]-benzylamide]	0.044

Further lines, results first:

IC50 [µM]	SMILES
0.0015	CN1CCN(S(=O)(=O)c2ccc(CNC(=O)c3cc(C#N)cc4c3cnn4-c3ccc(F)cc3)cc2)CC1 [6-Cyano-1-(4-fluoro-phenyl)-1H-indazole-4-carboxylic acid 4-(4-methyl-piperazine-1-sulfonyl)-benzylamide]
0.0044	CS(=O)(=O)Nc1ccc(CNC(=O)c2cc(C#N)cc3c2cnn3-c2ccc(F)cc2)cn1 [6-Cyano-1-(4-fluoro-phenyl)-1H-indazole-4-carboxylic acid (6-methanesulfonylamino-pyridin-3-ylmethyl)-amide]
0.002	CS(=O)(=O)c1cccc(CNC(=O)c2cc(C#N)cc3c2cnn3-c2ccc(F)cc2)c1 [6-Cyano-1-(4-fluoro-phenyl)-1H-indazole-4-carboxylic acid 3-methanesulfonyl-benzylamide]
0.018	CN1CCC(NS(=O)(=O)c2ccc(CNC(=O)c3cc(C#N)cc4c3cnn4-c3ccc(F)cc3)cc2)CC1 [6-Cyano-1-(4-fluoro-phenyl)-1H-indazole-4-carboxylic acid 4-(1-methyl-piperidin-4-ylsulfamoyl)-benzylamide]
0.0051	CN1CCC(N(C)S(=O)(=O)c2ccc(CNC(=O)c3cc(C#N)cc4c3cnn4-c3ccc(F)cc3)cc2)CC1 [6-Cyano-1-(4-fluoro-phenyl)-1H-indazole-4-carboxylic acid 4-[methyl-(1-methyl-piperidin-4-yl)-sulfamoyl]-benzylamide]
0.02	CNS(=O)(=O)c1ccc(CNC(=O)c2cc(C)cc3c2cnn3-c2ccc(F)cc2)cc1 [1-(4-Fluoro-phenyl)-6-methyl-1H-indazole-4-carboxylic acid 4-methylsulfamoyl-benzylamide]
0.021	N#Cc1cc(C(=O)NCc2ccc(Br)nc2)c2cnn(-c3ccc(F)cc3)c2c1 [6-Cyano-1-(4-fluoro-phenyl)-1H-indazole-4-carboxylic acid (6-bromo-pyridin-3-ylmethyl)-amide]
0.0003	CNS(=O)(=O)c1ccc(CNC(=O)c2cc(C#N)cc3c2cnn3-c2ccc(F)cc2)cc1 [6-Cyano-1-(4-fluoro-phenyl)-1H-indazole-4-carboxylic acid 4-methylsulfamoyl-benzylamide]
0.14	CCOC(=O)COc1cc(CNC(=O)c2cccc3c2cnn3-c2ccc(F)cc2)ccn1 [[4-({[1-(4-Fluoro-phenyl)-1H-indazole-4-carbonyl]-amino}-methyl)-pyridin-2-yloxy]-acetic acid ethyl ester]
0.0071	CS(=O)(=O)c1ccc(CNC(=O)c2cc(C#N)cc3c2cnn3-c2ccc(F)cc2)cn1 [6-Cyano-1-(4-fluoro-phenyl)-1H-indazole-4-carboxylic acid (6-methanesulfonyl-pyridin-3-ylmethyl)-amide]

target: T1, CCR1; assay: Calcium flux in response to MIP-1 alpha in CCR1-transfected cells, Method B (Calcium 4 dye, […] FDSS6000); assay type: cell-based; conditions: cells stably expressing recombinant CCR1 and G-alpha-16; MIP-1 alpha at EC80; 30 minutes at 37 C then 30 minutes at room temperature
Experimental: as §1
Method B: Non-adherent cells purchased from Chemicon Corporation (HTS005C), stably expressing recombinant CCR1 and G-alpha-16 are grown in RPMI 1640 medium (Mediatech 10-080-CM) supplemented with 10% FBS, 0.4 mg/mL Geneticin and penicillin/streptomycin. On the day of the assay, the cells are loaded with Calcium 4 dye (Molecular Devices R7448) with Probenecid (Invitrogen P346400) at 8E5 cells/mL for 1 hour at room temperature. After 1 hour, they are seeded in a 384-well tissue culture-treated plate at a density of 20,000 cells/well. Appropriately diluted test compound is added to the well to achieve a top concentration of 3,000 nM (diluted 4-fold with 10 doses total). The final concentration of DMSO is 1%. The buffer is HBSS (Invitrogen 14025) with 20 mM HEPES at pH 7.4. The cells incubate 30 minutes at 37 C and then 30 minutes at room temperature. The plates are transferred to the […] FDSS6000 where MIP-1 alpha in 1% BSA is added at the EC80 final concentration. All plates must be read within 4 hours of the start of dye-loading. Wells +/−MIP-1alpha containing diluted DMSO instead of compound serve as the controls. Data are analyzed using Activity Base software.

IC50 [µM]	SMILES
0.023	CC[C@H](NC(=O)c1cc(Br)cc2c1cnn2-c1ccc(F)cc1)c1ccc(S(C)(=O)=O)nc1 [6-Bromo-1-(4-fluoro-phenyl)-1H-indazole-4-carboxylic acid [(S)-1-(6-methanesulfonyl-pyridin-3-yl)-propyl]-amide]
0.002	CC[C@H](NC(=O)c1cccc2c1cnn2-c1ccc(F)cc1)c1ccc(S(C)(=O)=O)nc1 [1-(4-Fluoro-phenyl)-1H-indazole-4-carboxylic acid [(S)-1-(6-methanesulfonyl-pyridin-3-yl)-propyl]-amide]

— patent US8263597B2, “Indazole compounds as CCR1 receptor antagonists” (Boehringer Ingelheim International GmbH, priority 2008, dated 2012)
